Assay results from patent US9499550B2 (BRISTOL-MYERS SQUIBB COMPANY, priority 2012, dated 2016).

Experiments:
[1] = test system: HCV genotype 1a (H77 strain) replicon in HUH-7 cells; assay: HCV replicon luciferase reporter assay, genotype 1a; format: cell-based; settings: Hepatitis C virus, Huh-7, 72 h, HCV genotype 1a replicon luciferase, 3 days incubation, read-out: LE_1a (EC50, range)
How it was run: (§1)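 Replicon inhibition for both genotypes was measured as Renilla luciferase signal (EnduRen, 7.5 μM final, 2 h) after 3-day, 37° C exposure of replicon-bearing HUH-7 cells in 4% FCS DMEM, 0.5% DMSO. The 1b construct carries S1179I; the 1a H77 construct carries P1496L and S2204I. Twenty-point, 3-fold dilutions were fitted four-parametrically for EC50, and CC50 was taken from multiplexed Cell Titer-Blue.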

[2] = test system: HCV genotype 1b (Con1) replicon in HUH-7 cells; assay: HCV replicon luciferase reporter assay, genotype 1b; format: cell-based; settings: Hepatitis C virus, Huh-7, 72 h, HCV genotype 1b replicon luciferase, 3 days incubation, read-out: LE_1b (EC50, range)
How it was run: as §1

COc1ccc2c(O[C@@H]3C[C@H]4C(=O)N[C@]5(C(=O)NS(=O)(=O)C6CC6)C[C@H]5/C=C\CC[C@H](C)C[C@@H](C)[C@H](NC(=O)OC(C)(C)C(F)(F)F)C(=O)N4C3)nc(-c3ccc(N4CCOCC4)cc3)cc2c1 [Compound 5196, 1,1,1-trifluoro-2-methylpropan-2-yl((2R,6S,7R,9S,13aS,14aR,16aS,Z)-14a-((cyclopropylsulfonyl)carbamoyl)-2-((6-methoxy-3-(4-morpholinophenyl)isoquinolin-1-yl)oxy)-7,9-dimethyl-5,16-dioxo-1,2,3,5,6,7,8,9,10,11,13a,14,14a,15,16,16a-hexadecahydrocyclopropa[e]pyrrolo[1,2-a][1,4]diazacyclopentadecin-6-yl)carbamate]
EC50 [1]: < 5.46 nM | EC50 [2]: < 5.46 nM

COc1ccc2c(O[C@@H]3C[C@H]4C(=O)N[C@]5(C(=O)NS(=O)(=O)C6CC6)C[C@H]5/C=C\CC[C@@H](C)C[C@@H](C)[C@H](NC(=O)OC(C)(C)C(F)(F)F)C(=O)N4C3)nc(-c3ccc(N4CCOCC4)cc3)cc2c1 [Compound 5197, 1,1,1-trifluoro-2-methylpropan-2-yl((2R,6S,7R,9R,13aS,14aR,16aS,Z)-14a-((cyclopropylsulfonyl)carbamoyl)-2-((6-methoxy-3-(4-morpholinophenyl)isoquinolin-1-yl)oxy)-7,9-dimethyl-5,16-dioxo-1,2,3,5,6,7,8,9,10,11,13a,14,14a,15,16,16a-hexadecahydrocyclopropa[e]pyrrolo[1,2-a][1,4]diazacyclopentadecin-6-yl)carbamate]
EC50 [1]: < 5.46 nM | EC50 [2]: < 5.46 nM

COc1ccc2c(O[C@@H]3C[C@H]4C(=O)N[C@]5(C(=O)NS(=O)(=O)C6(C)CC6)C[C@H]5/C=C\CC[C@H](C)C[C@@H](C)[C@H](NC(=O)OC(C)(C)C(F)(F)F)C(=O)N4C3)nc(-c3ccc(N4CCOCC4)cc3)cc2c1 [Compound 5198, 1,1,1-trifluoro-2-methylpropan-2-yl((2R,6S,7R,9S,13aS,14aR,16aS,Z)-2-((6-methoxy-3-(4-morpholinophenyl)isoquinolin-1-yl)oxy)-7,9-dimethyl-14a-(((1-methylcyclopropyl)sulfonyl)carbamoyl)-5,16-dioxo-1,2,3,5,6,7,8,9,10,11,13a,14,14a,15,16,16a-hexadecahydrocyclopropa[e]pyrrolo[1,2-a][1,4]diazacyclopentadecin-6-yl)carbamate]
EC50 [1]: 4.82 to 103 nM | EC50 [2]: < 5.46 nM

COc1ccc2c(O[C@@H]3C[C@H]4C(=O)N[C@]5(C(=O)NS(=O)(=O)C6(C)CC6)C[C@H]5/C=C\CC[C@@H](C)C[C@@H](C)[C@H](NC(=O)OC(C)(C)C(F)(F)F)C(=O)N4C3)nc(-c3ccc(N4CCOCC4)cc3)cc2c1 [Compound 5199, 1,1,1-trifluoro-2-methylpropan-2-yl((2R,6S,7R,9R,13aS,14aR,16aS,Z)-2-((6-methoxy-3-(4-morpholinophenyl)isoquinolin-1-yl)oxy)-7,9-dimethyl-14a-(((1-methylcyclopropyl)sulfonyl)carbamoyl)-5,16-dioxo-1,2,3,5,6,7,8,9,10,11,13a,14,14a,15,16,16a-hexadecahydrocyclopropa[e]pyrrolo[1,2-a][1,4]diazacyclopentadecin-6-yl)carbamate]
EC50 [1]: < 5.46 nM | EC50 [2]: < 5.46 nM

COc1ccc2c(O[C@@H]3C[C@H]4C(=O)N[C@]5(C(=O)NS(=O)(=O)C6CC6)C[C@H]5/C=C\CC[C@H](C)C[C@@H](C)[C@H](NC(=O)OC(C)(C)C)C(=O)N4C3)nc(-c3ccc(OC(C)C)cn3)cc2c1 [Compound 5200, tert-butyl ((2R,6S,7R,9S,13aS,14aR,16aS,Z)-14a-((cyclopropylsulfonyl)carbamoyl)-2-((3-(5-isopropoxypyridin-2-yl)-6-methoxyisoquinolin-1-yl)oxy)-7,9-dimethyl-5,16-dioxo-1,2,3,5,6,7,8,9,10,11,13a,14,14a,15,16,16a-hexadecahydrocyclopropa[e]pyrrolo[1,2-a][1,4]diazacyclopentadecin-6-yl)carbamate]
EC50 [1]: < 5.46 nM | EC50 [2]: < 5.46 nM

COc1ccc2c(O[C@@H]3C[C@H]4C(=O)N[C@]5(C(=O)NS(=O)(=O)C6CC6)C[C@H]5/C=C\CC[C@@H](C)C[C@@H](C)[C@H](NC(=O)OC(C)(C)C)C(=O)N4C3)nc(-c3ccc(OC(C)C)cn3)cc2c1 [Compound 5201, tert-butyl ((2R,6S,7R,9R,13aS,14aR,16aS,Z)-14a-((cyclopropylsulfonyl)carbamoyl)-2-((3-(5-isopropoxypyridin-2-yl)-6-methoxyisoquinolin-1-yl)oxy)-7,9-dimethyl-5,16-dioxo-1,2,3,5,6,7,8,9,10,11,13a,14,14a,15,16,16a-hexadecahydrocyclopropa[e]pyrrolo[1,2-a][1,4]diazacyclopentadecin-6-yl)carbamate]
EC50 [1]: < 5.46 nM | EC50 [2]: < 5.46 nM

COc1ccc2c(O[C@@H]3C[C@H]4C(=O)N[C@]5(C(=O)NS(=O)(=O)C6CC6)C[C@H]5/C=C\CC[C@H](C)C[C@@H](C)[C@H](NC(=O)OC(C)(C)C(F)(F)F)C(=O)N4C3)nc(-c3ccc(OC(C)C)cn3)cc2c1 [Compound 5202, 1,1,1-trifluoro-2-methylpropan-2-yl((2R,6S,7R,9S,13aS,14aR,16aS,Z)-14a-((cyclopropylsulfonyl)carbamoyl)-2-((3-(5-isopropoxypyridin-2-yl)-6-methoxyisoquinolin-1-yl)oxy)-7,9-dimethyl-5,16-dioxo-1,2,3,5,6,7,8,9,10,11,13a,14,14a,15,16,16a-hexadecahydrocyclopropa[e]pyrrolo[1,2-a][1,4]diazacyclopentadecin-6-yl)carbamate]
EC50 [1]: < 5.46 nM | EC50 [2]: < 5.46 nM

COc1ccc2c(O[C@@H]3C[C@H]4C(=O)N[C@]5(C(=O)NS(=O)(=O)C6CC6)C[C@H]5/C=C\CC[C@@H](C)C[C@@H](C)[C@H](NC(=O)OC(C)(C)C(F)(F)F)C(=O)N4C3)nc(-c3ccc(OC(C)C)cn3)cc2c1 [Compound 5203, 1,1,1-trifluoro-2-methylpropan-2-yl((2R,6S,7R,9R,13aS,14aR,16aS,Z)-14a-((cyclopropylsulfonyl)carbamoyl)-2-((3-(5-isopropoxypyridin-2-yl)-6-methoxyisoquinolin-1-yl)oxy)-7,9-dimethyl-5,16-dioxo-1,2,3,5,6,7,8,9,10,11,13a,14,14a,15,16,16a-hexadecahydrocyclopropa[e]pyrrolo[1,2-a][1,4]diazacyclopentadecin-6-yl)carbamate]
EC50 [1]: < 5.46 nM | EC50 [2]: < 5.46 nM

[2H]C([2H])([2H])C(OC(=O)N[C@@H]1C(=O)N2C[C@H](Oc3nc(-c4ccc(OC(C)C)cn4)cc4cc(OC)ccc34)C[C@H]2C(=O)N[C@]2(C(=O)NS(=O)(=O)C3CC3)C[C@H]2/C=C\CC[C@H](C)C[C@H]1C)(C([2H])([2H])[2H])C(F)(F)F [Compound 5204, 1,1,1,3,3,3-hexadeutero-2-(trifluoromethyl)propan-2-yl((2R,6S,7R,9S,13aS,14aR,16aS,Z)-14a-((cyclopropylsulfonyl)carbamoyl)-2-((3-(5-isopropoxypyridin-2-yl)-6-methoxyisoquinolin-1-yl)oxy)-7,9-dimethyl-5,16-dioxo-1,2,3,5,6,7,8,9,10,11,13a,14,14a,15,16,16a-hexadecahydrocyclopropa[e]pyrrolo[1,2-a][1,4]diazacyclopentadecin-6-yl)carbamate]
EC50 [1]: < 5.46 nM | EC50 [2]: < 5.46 nM

[2H]C([2H])([2H])C(OC(=O)N[C@@H]1C(=O)N2C[C@H](Oc3nc(-c4ccc(OC(C)C)cn4)cc4cc(OC)ccc34)C[C@H]2C(=O)N[C@]2(C(=O)NS(=O)(=O)C3CC3)C[C@H]2/C=C\CC[C@@H](C)C[C@H]1C)(C([2H])([2H])[2H])C(F)(F)F [Compound 5205, 1,1,1,3,3,3-hexadeutero-2-(trifluoromethyl)propan-2-yl((2R,6S,7R,9R,13aS,14aR,16aS,Z)-14a-((cyclopropylsulfonyl)carbamoyl)-2-((3-(5-isopropoxypyridin-2-yl)-6-methoxyisoquinolin-1-yl)oxy)-7,9-dimethyl-5,16-dioxo-1,2,3,5,6,7,8,9,10,11,13a,14,14a,15,16,16a-hexadecahydrocyclopropa[e]pyrrolo[1,2-a][1,4]diazacyclopentadecin-6-yl)carbamate]
EC50 [1]: < 5.46 nM | EC50 [2]: < 5.46 nM

COc1ccc2c(O[C@@H]3C[C@H]4C(=O)N[C@]5(C(=O)NS(=O)(=O)C6CC6)C[C@H]5/C=C\CC[C@H](C)C[C@@H](C)[C@H](NC(=O)O[C@H](C)C(F)(F)F)C(=O)N4C3)nc(-c3ccc(OC(C)C)cn3)cc2c1 [Compound 5206, (R)-1,1,1-trifluoropropan-2-yl ((2R,6S,7R,9S,13aS,14aR,16aS,Z)-14a-((cyclopropylsulfonyl)carbamoyl)-2-((3-(5-isopropoxypyridin-2-yl)-6-methoxyisoquinolin-1-yl)oxy)-7,9-dimethyl-5,16-dioxo-1,2,3,5,6,7,8,9,10,11,13a,14,14a,15,16,16a-hexadecahydrocyclopropa[e]pyrrolo[1,2-a][1,4]diazacyclopentadecin-6-yl)carbamate]
EC50 [1]: < 5.46 nM | EC50 [2]: < 5.46 nM

COc1ccc2c(O[C@@H]3C[C@H]4C(=O)N[C@]5(C(=O)NS(=O)(=O)C6CC6)C[C@H]5/C=C\CC[C@@H](C)C[C@@H](C)[C@H](NC(=O)O[C@H](C)C(F)(F)F)C(=O)N4C3)nc(-c3ccc(OC(C)C)cn3)cc2c1 [Compound 5207, (R)-1,1,1-trifluoropropan-2-yl ((2R,6S,7R,9R,13aS,14aR,16aS,Z)-14a-((cyclopropylsulfonyl)carbamoyl)-2-((3-(5-isopropoxypyridin-2-yl)-6-methoxyisoquinolin-1-yl)oxy)-7,9-dimethyl-5,16-dioxo-1,2,3,5,6,7,8,9,10,11,13a,14,14a,15,16,16a-hexadecahydrocyclopropa[e]pyrrolo[1,2-a][1,4]diazacyclopentadecin-6-yl)carbamate]
EC50 [1]: < 5.46 nM | EC50 [2]: < 5.46 nM
